Source: patent US20260193278A1, “NOVEL PHTHALOCYANINE COMPOUNDS AND THE USE THEREOF FOR THE TREATMENT OF DISEASES” (RHODES UNIVERSITY, priority 2022, published 2026)

Tests used:
Format in all cases: cell-based
[1] = test system: E. coli; experiment: Dark toxicity against E. coli, concentration study at 0 min (CFU counting); details: in the dark; for Ecoli log CFU/ml (logarithmic reduction value): at the concentration of the μM column; for Ecoli μM (concentration corresponding to the logarithmic reduction): range tested 0-15 μM
Protocol: (§1) 500 μM stock solutions of the samples were prepared in ultra-pure water (5% DMSO) and used at different concentrations in the biological assays.
(§2) Two bacterial strains were used for the PACT studies; S. aureus as a gram-(+) bacterium and E. coli as a gram-(−) negative bacterium. Stock cultures were grown aerobically in 6 mL of nutrient broth incubated at 37° C. on a rotary shaker (~200 rpm) to obtain bacteria cultures. The incubation was maintained until the optical density of the culture at 600 nm was determined to be between 0.6 and 0.8. The resulting bacterial solution was centrifuged to remove the broth, and bacterial cells were washed three times with PBS. The solution of the bacteria was prepared by diluting with PBS to obtain […] bacteria solutions corresponding to ~10^9 and ~10^8 colony forming units (CFU)/mL, respectively.
(§3) The bacteria/photosensitizer mixtures were incubated in an oven equipped with a shaker for 30 min in the dark at 37° C. before plating. 100 μL of solution was taken from the suspension and was immediately inoculated on agar plates to determine the activity at 0 min without treatment. The number of colonies was then counted on each plate after 18 h of incubation at 37° C. Control treatments were performed in the absence of photosensitizer. All experiments were carried out three times. The data for CFU/mL were converted to the logarithmic form.

[2] = test system: S. aureus; experiment: Dark toxicity against S. aureus, concentration study at 0 min (CFU counting); details: for Staph log CFU/ml (logarithmic reduction value) / Staph μM (concentration corresponding to the logarithmic reduction): in the dark, at 0 min; for Staph log CFU/ml (logarithmic reduction value): at the concentration of the μM column; for Staph μM (concentration corresponding to the logarithmic reduction): range tested 0-10 μM
Protocol: as §1, §2, §3

[3] = test system: MCF-7 (human breast adenocarcinoma) cells; experiment: In vitro dark cytotoxicity, MCF-7 cells (anticancer studies); details: MCF-7, dark; for Min. Death conc. / Cell death: 24 h; for Cell death: at the Min. Death conc.
Protocol: MCF-7 (human breast adenocarcinoma) cells were cultured in Dulbecco's modified Eagle's medium-10% fetal bovine serum (DMEM-FBS) and PSA (penicillin/streptomycin/Amphotericin B) at 37° C. in an incubator (5% CO2) in 75 cm^2 vented flasks. The cultures were grown as a monolayer. The growth cells were transferred to well plates by trypsinizing with 0.25% trypsin-EDTA. The Pc stock concentrations were prepared by separately dissolving them in DMSO (1%) and diluting in water and the Pc gradient concentration was prepared by taking known aliquots from the stock and finally made up to marked volume with supplemented media with phenol red.
It was studied from […] both in the dark. 100 μL each of the newly prepared gradient Pcs concentration of 0 μg/mL (control), 5 μg/mL, 10 μg/mL, 20 μg/mL, 40 μg/mL, 60 μg/mL 80 μg/mL, 100 μg/mL and 120 μg/mL were administered on the incubated seeded cells. The 96 well cell culture plates containing the cells and the Pcs were incubated at 37° C. and 5% CO2 in the dark for 24 h. After 24 h treatment, the wells were rinsed with 100 μL DPBS. Cell survival was expressed as percentage of control cells (cells without Pcs). Post treatment cell viability was measured using the cell proliferation […] reagent (WST-1 assay) on a Synergy 2 multi-mode microplate reader (BioTek®) at a wavelength of 450 nm according to the following equation 1.

[4] = test system: S. aureus; experiment: Photodynamic inactivation of S. aureus (with irradiation); details: after irradiation 20 min at 0.5, 1 and 2.5 μM
Protocol: as §2
as §3, with “Pc solutions were prepared by dissolving in water containing 5% DMSO and applied over the range of 0-10 μM for S. aureus and 0-15 μM for E. coli. The bacteria/photosensitizer” for “The bacteria/photosensitizer”

Compound	Ecoli log CFU/ml (logarithmic reduction value) [1]	Ecoli μM (concentration corresponding to the logarithmic reduction) [1]	log reduction (dark toxicity) ([2]; dark, 0 min, at 5 and 10 μM)	Staph log CFU/ml (logarithmic reduction value) [2]	Staph μM (concentration corresponding to the logarithmic reduction) [2]	optimal concentration to kill the cancer cells [3]	Min. Death conc. [3]	Cell death [3]	cancer cells killed at the optimal concentration ([3]; at the optimal concentration)	log reduction (photocytotoxicity) [4]
C[n+]1c(-c2ccc(Oc3ccc4c(c3)C3=Nc5c6ccc(Oc7ccc(-c8[nH]c9cc(Cl)cc(Cl)c9[n+]8C)cc7)cc6c6[n]5[Zn][n]5c(c7ccc(Oc8ccc(-c9[nH]c%10cc(Cl)cc(Cl)c%10[n+]9C)cc8)cc7c5=NC5=NC(=N6)c6cc(Oc7ccc(-c8[nH]c9cc(Cl)cc(Cl)c9[n+]8C)cc7)ccc65)=NC4=N3)cc2)[nH]c2cc(Cl)cc(Cl)c21.[I-].[I-].[I-].[I-] [Compound 193]	8.79 log CFU/ml	1 μM	9.63	9.61 log CFU/ml	4 μM	40 µM	40 µM	72.7%	72.7%	9.63
C[n+]1c(-c2ccc(Oc3ccc4c(c3)C3=Nc5c6ccc(Oc7ccc(-c8[nH]c9cc(Br)cc(Cl)c9[n+]8C)cc7)cc6c6[n]5[Co][n]5c(c7ccc(Oc8ccc(-c9[nH]c%10cc(Br)cc(Cl)c%10[n+]9C)cc8)cc7c5=NC5=NC(=N6)c6cc(Oc7ccc(-c8[nH]c9cc(Br)cc(Cl)c9[n+]8C)cc7)ccc65)=NC4=N3)cc2)[nH]c2cc(Br)cc(Cl)c21.[I-].[I-].[I-].[I-] [Compound 234]	8.79 log CFU/ml	2.5 μM		9.25 log CFU/ml	0.5 μM		60 µM	90.4%		
C[n+]1c(-c2ccc(Oc3ccc4c(c3)C3=Nc5c6ccc(Oc7ccc(-c8[nH]c9cc(Br)cc(Cl)c9[n+]8C)cc7)cc6c6[n]5[Cu][n]5c(c7ccc(Oc8ccc(-c9[nH]c%10cc(Br)cc(Cl)c%10[n+]9C)cc8)cc7c5=NC5=NC(=N6)c6cc(Oc7ccc(-c8[nH]c9cc(Br)cc(Cl)c9[n+]8C)cc7)ccc65)=NC4=N3)cc2)[nH]c2cc(Br)cc(Cl)c21.[I-].[I-].[I-].[I-] [Compound 235]	8.79 log CFU/ml	12.5 μM		9.25 log CFU/ml	10 μM		10 µM	34.8%		
C[n+]1c(-c2ccc(Oc3ccc4c(c3)C3=Nc5c6ccc(Oc7ccc(-c8[nH]c9ccc(Cl)cc9[n+]8C)cc7)cc6c6[n]5[Zn][n]5c(c7ccc(Oc8ccc(-c9[nH]c%10ccc(Cl)cc%10[n+]9C)cc8)cc7c5=NC5=NC(=N6)c6cc(Oc7ccc(-c8[nH]c9ccc(Cl)cc9[n+]8C)cc7)ccc65)=NC4=N3)cc2)[nH]c2ccc(Cl)cc21.[I-].[I-].[I-].[I-] [Compound 242]	8.79 log CFU/ml	2.5 μM		9.24 log CFU/ml	0.5 μM		120 µM	49.8%		
C[n+]1c(-c2ccc(Oc3ccc4c(c3)C3=Nc5c6ccc(Oc7ccc(-c8[nH]c9ccc(Cl)cc9[n+]8C)cc7)cc6c6[n]5[Co][n]5c(c7ccc(Oc8ccc(-c9[nH]c%10ccc(Cl)cc%10[n+]9C)cc8)cc7c5=NC5=NC(=N6)c6cc(Oc7ccc(-c8[nH]c9ccc(Cl)cc9[n+]8C)cc7)ccc65)=NC4=N3)cc2)[nH]c2ccc(Cl)cc21.[I-].[I-].[I-].[I-] [Compound 243]	8.79 log CFU/ml	2.5 μM		9.24 log CFU/ml	4 μM		120 µM	62.4%		
C[n+]1c(-c2ccc(Oc3ccc4c(c3)C3=Nc5c6ccc(Oc7ccc(-c8[nH]c9ccc(Cl)cc9[n+]8C)cc7)cc6c6[n]5[Cu][n]5c(c7ccc(Oc8ccc(-c9[nH]c%10ccc(Cl)cc%10[n+]9C)cc8)cc7c5=NC5=NC(=N6)c6cc(Oc7ccc(-c8[nH]c9ccc(Cl)cc9[n+]8C)cc7)ccc65)=NC4=N3)cc2)[nH]c2ccc(Cl)cc21.[I-].[I-].[I-].[I-] [Compound 244]	8.79 log CFU/ml	15 μM		9.24 log CFU/ml	10 μM		80 µM	90.8%		
Tetrakis [4-(4-(5-bromo-1H-benzo[d]imidazol-2-yl)phenoxy phthalocyaninato] copper(II) tetraiodide [Compound 219]	8.78 log CFU/ml	12.5 μM		9.15 log CFU/ml	10 μM		10 µM	36.9%		
Tetrakis [4-(4-(5-bromo-1H-benzo[d]imidazol-2-yl)phenoxy phthalocyaninato] zinc(II) tetraiodide [Compound 217]	8.78 log CFU/ml	5 μM		9.15 log CFU/ml	1 μM		5 µM	40.1%		
Tetrakis [4-(4-(5-bromo-1H-benzo[d]imidazol-2-yl)phenoxy phthalocyaninato] zinc(II) tetraiodide [Compound 218]	8.78 log CFU/ml	1 μM		9.15 log CFU/ml	0.5 μM		10 µM	56.6%		
